In patent publication US6706716B2, “Compounds specific for the human α1d adrenergic receptor and uses thereof” (Synaptic Pharmaceutical Corporation, priority 1998, dated 2004):

Experiments:
human 5-HT1a receptor = target: T1, human 5-HT1a receptor (Homo sapiens, UniProt P08908); assay: Competition binding ([3H]-8-OH-DPAT) at cloned human 5-HT1a receptor; details: COS-7 cell membranes, read-out: Binding affinities (pKi) 5-HT1a (converted)
T1 construct: receptor open reading frames and variable non-coding 5′- and 3′-regions, was cloned into the eukaryotic expression vector pCEXV-3; expressed in transfected cells; host or cells: COS-7 cells, transient (DEAE-dextran); a deposited line 5-HT1A-3 (ATCC CRL 11889) is also named
T1 sequence (P08908 1-422): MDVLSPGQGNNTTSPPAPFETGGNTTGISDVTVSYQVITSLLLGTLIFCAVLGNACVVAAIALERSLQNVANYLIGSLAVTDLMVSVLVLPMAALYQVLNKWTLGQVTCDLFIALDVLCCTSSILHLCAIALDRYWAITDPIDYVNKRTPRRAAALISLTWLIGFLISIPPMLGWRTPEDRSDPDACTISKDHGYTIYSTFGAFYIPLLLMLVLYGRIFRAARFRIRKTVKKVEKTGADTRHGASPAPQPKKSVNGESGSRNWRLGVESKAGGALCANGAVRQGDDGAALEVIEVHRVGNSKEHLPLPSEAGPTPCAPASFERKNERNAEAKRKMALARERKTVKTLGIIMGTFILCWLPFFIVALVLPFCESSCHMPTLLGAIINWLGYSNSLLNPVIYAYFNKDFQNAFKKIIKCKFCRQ
Experimental: (§1) First, conditions were determined which allowed measurement of the specific binding of a compound known to bind to the receptor. Then, the binding of the known compound to the receptor in membrane preparations was evaluated in the presence of several different concentrations of the test compound.
(§2) These cell lines were prepared by transfecting the cloned cDNA or cloned genomic DNA or constructs containing both genomic DNA and cDNA encoding the human receptors as described below.
The cDNA corresponding to the ^5-HT1a receptor open reading frames and variable non-coding 5′- and 3′-regions, was cloned into the eukaryotic expression vector pCEXV-3. These constructs were transfected transiently into COS-7 cells by the DEAE-dextran method. Cells were harvested after 72 hours and lysed by sonication in 5 mM Tris-HCl, 5 mM EDTA, pH 7.5. The cell lysates were centrifuged at 1000 rpm for 5 minutes at 4° C., and the supernatant was centrifuged at 30,000×g for 20 minutes at 4° C. The pellet was suspended in 50 mM Tris-HCl buffer (pH 7.7 at room temperature) containing 10 mM MgSO4, 0.5 mM EDTA, and 0.1% ascorbate. The affinity of compounds at 5-HT1a receptors were determined in equilibrium competition binding assays using [^3H]-8-OH-DPAT. Nonspecific binding was defined by the addition of 10 μM mianserin. The bound radioligand was separated by filtration through GF/B filters using a cell harvester.

[1] = target: T2, human α1a adrenergic receptor (Homo sapiens, UniProt P35348); assay: Radioligand binding ([3H]prazosin) at cloned human α1a adrenergic receptor; details: LM(tk-) cell membranes, read-out: Binding affinities (pKi) α1a (converted)
T2 construct: The entire coding region of α1a (1401 bp); expressed in transfected cells
T2 sequence (P35348 1-466): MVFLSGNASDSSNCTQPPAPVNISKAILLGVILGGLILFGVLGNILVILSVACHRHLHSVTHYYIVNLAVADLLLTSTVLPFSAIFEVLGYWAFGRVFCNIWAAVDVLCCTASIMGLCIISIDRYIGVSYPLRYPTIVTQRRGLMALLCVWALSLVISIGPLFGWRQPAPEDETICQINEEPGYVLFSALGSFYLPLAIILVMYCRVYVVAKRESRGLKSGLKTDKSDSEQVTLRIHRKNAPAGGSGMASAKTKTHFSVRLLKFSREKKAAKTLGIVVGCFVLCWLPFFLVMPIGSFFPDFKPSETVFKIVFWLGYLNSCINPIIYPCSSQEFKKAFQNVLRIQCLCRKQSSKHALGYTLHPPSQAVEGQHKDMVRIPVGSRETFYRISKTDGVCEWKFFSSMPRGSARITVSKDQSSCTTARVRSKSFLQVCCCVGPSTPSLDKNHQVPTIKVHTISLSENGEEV
Experimental: as §1, §2
The construct involved ligating three partial overlapping fragments: a 5′0.6 kb HincII genomic clone, a central 1.8 EcoRI hippocampal cDNA clone, and a 3′0.6 Kb PstI genomic clone. The hippocampal cDNA fragment overlaps with the 5′ and 3′ genomic clones so that the HincII and PstI sites at the 5′ and 3′ ends of the cDNA clone, respectively, were utilized for ligation. This full-length clone was cloned into the KpnI site of the expression vector, using the 5′ and 3′ KpnI sites of the fragment, derived from vector (i.e., pBluescript) and 3′-untranslated sequences, respectively. Stable cell lines were selected as described above. Membranes were harvested and assayed for their ability to bind [^3H]prazosin as described below (see Radioligand Binding assays).
Radioligand Binding Assays for α1 Human Adrenergic Receptors: Transfected cells from culture flasks were scraped into 5 ml of 5 mM Tris-HCl, 5 mM EDTA, pH 7.5, and lysed by sonication. The cell lysates were centrifuged at 1000 rpm for 5 min at 4° C., and the supernatant was centrifuged at 30,000×g for 20 min at 4° C. The pellet was suspended in 50 mM Tris-HCl, 1 mM MgCl2, and 0.1% ascorbic acid at pH 7.5. Binding of the α1, antagonist [^3H]prazosin (0.5 nM, specific activity 76.2 Ci/mmol) to membrane preparations of LM(tk-) cells was done in a final volume of 0.25 ml and incubated at 37° C. for 1 hour. Nonspecific binding was determined in the presence of 10 μM phentolamine. The reaction was stopped by filtration through GF/B filters using a cell harvester.

Compound	Ki (human 5-HT1a receptor) [nM]	Ki [1] [nM]
O=C1CC2(CCCC2)CC(=O)N1CCN1CCN(c2cc(F)ccc2F)CC1 [Compound 6, 8-{2-[4-(2,5-Difluorophenyl)piperazin-1-yl]ethyl}-8-azaspiro[4.5]decane-7,9-dione]	25.1	
O=C1CC2(CCCC2)CC(=O)N1CCN1CCN(c2cc(F)c(F)cc2F)CC1 [Compound 7, 8-{2-[4-(2,4,5-Trifluorophenyl)piperazin-1-yl]ethyl}-8-azaspiro[4.5]decane-7,9-dione]	398	3980
C[C@H](CN1CCN(c2cc(F)ccc2F)CC1)N1C(=O)CC2(CCCC2)CC1=O [Compound 8, 8-{(1R)-2-[4-(2,5-Difluorophenyl)piperazin-1-yl]-1-methylethyl}-8-azaspiro[4.5]decane-7,9-dione]	50.1	6310
C[C@@H](CN1CCN(c2cc(F)ccc2F)CC1)N1C(=O)CC2(CCCC2)CC1=O [Compound 10, 8-{(1S)-2-[4-(2,5-Difluorophenyl)piperazin-1-yl]-1-methylethyl}-8-azaspiro[4.5]decane-7,9-dione]	2510	7940
COc1ccc(F)cc1C1CCN(CCN2C(=O)CC3(CCCC3)CC2=O)CC1 [Compound 12, 8-{2-[4-(5-Fluoro-2-methoxyphenyl)piperidin-1-yl]ethyl}-8-azaspiro[4.5]decane-7,9-dione]	7.94	79.4

The next lines start with the values.

Ki (human 5-HT1a receptor) [nM]	Ki [1] [nM]	Compound
251	7940	Cc1ccc(Cl)cc1N1CCN(CCN2C(=O)CC3(CCCC3)CC2=O)CC1 [Compound 13, 8-{2-[4-(5-Chloro-2-methylphenyl)piperazino]ethyl}-8-azaspiro [4.5]decane-7,9-dione]
7.94	3160	O=C1CC2(CCCC2)CC(=O)N1CCN1CCN(c2c(F)cccc2F)CC1 [Compound 14, 8-{2-[4-(2,6-Difluorophenyl)piperazino]ethyl}-8-azaspiro[4.5]decane-7,9-dione]
50.1	3980	O=C1CC2(CCCC2)CC(=O)N1CCN1CCN(c2ccc(F)c(F)c2)CC1 [Compound 15, 8-{2-[4-(3,4-Difluorophenyl)piperazin-1-yl]ethyl}-8-azaspiro[4.5]decane-7,9-dione]
